IC50 and Kd data for three molecules are collected here from US9321808B2, “Homo- and heterodimeric SMAC mimetic compounds as apoptosis inducers” (BioNTech AG, priority 2012, dated 2016).

One assay concerns the target T1, cIAP1-BIR3 (Homo sapiens, UniProt Q13490).
T1 construct: 6xHis (C); made in house; host or cells: Escherichia coli BL21(DE3)
Put plainly: Fluorescence polarization binding, cIAP1 BIR3. Particulars: displacement of fluorescent probe (2 nM) from cIAP1-BIR3 (10 nM); average of three independent measurements; read-out: cIAP1 IC50(av). As for the experimental part:
(§1) The plasmids were used to transform Escherichia coli strain BL21(DE3). The recombinant proteins were purified using Ni-NTA (His-trap FFcrude, Ge-Healthcare), followed by gel filtration (Superdex 200, Ge-Healthcare). The recombinant proteins were eluted in 20 mM Tris pH 8.0, 250 mM NaCl and 10 mM DTT. Aliquoted proteins were conserved at −80° C.
(§2) The fluorescently-labelled Smac peptide (AbuRPF-K(5-Fam)-N1-12, final concentration of 2 nM), and increasing concentrations of cIAP1- and cIAP2-BIR3 from 0 to 20 μM, were added to an assay buffer consisting of 100 mM potassium phosphate, pH 7.5, 100 μg/ml bovine γ-globulin, 0.02% sodium azide. […] All experiments were performed in black, flat-bottom 96-well microplates (Greiner bio-one). 4-substituted azabicyclo[5.3.0]alkane Smac-mimetics were evaluated for their ability to displace the fluorescent probe from recombinant protein. […] After 15 minutes mixing on a shaker, and 3 hours incubation at room temperature, fluorescent polarization was measured on the Ultra plate reader (Tecan).
(Fluorescence polarisation rises when a labelled molecule tumbles more slowly, as on binding a larger partner.)

The next assay concerns the target T2, human XIAP BIR3 domain (Homo sapiens, UniProt P98170).
T2 construct: human XIAP BIR3 domain from residue 241 to 356; made in house; host or cells: Escherichia coli BL21
The assay is described as follows: Fluorescence polarization competitive binding, XIAP BIR3. Particulars: displacement of FITC-SMAC probe from XIAP BIR3-His-tag (60 nM); average of three independent measurements. How it is done: (§3) Data were analyzed using Prism 4.0 software (Graphpad Software).

Assay [1] has as its system MDA-MB-231 (breast epithelial adenocarcinoma). Put plainly: Standalone cytotoxicity, MTT assay, MDA-MB-231. In kind it is cell-based, human. The conditions noted are these: Homo sapiens, MDA-MB-231, 96 hours treatment, reported as activity range, read-out: MDA-MB-231 IC50 (μM ± standard Deviation). As for the experimental part: Human cell lines MDA-MB-231 (breast epithelial adenocarcinoma), HL-60 (promieloblast cells) and PC-3 (prostate adenocarcinoma cells) were purchased from Istituto Zooprofilattico di Brescia (www.bs.izs.it). Reagents for cell culture were purchased from Sigma, unless otherwise indicated. Cells were grown on Plastic Petri dishes (Falcon) in RPMI 1640 medium supplemented with 2 mM L-glutamine, Penicillin (100 U/mL)/Streptomicin (100 μg/mL), 10% Fetal Bovine Serum. A sub-cultivation ratio of 1:4 was used. Cells were maintained at 37° C. in an atmosphere of 95% air and 5% CO2.
Cells were seeded in 96-well flat bottom cell culture plates at a density of 5000 cells/well in 100 μL of culture medium. HL-60 cells were immediately stimulated with the indicated compounds for 96 hours in the incubator. MDA-MB-231 and PC-3 cells were allowed to adhere for 24 hours. prior to be exposed to the compounds for 96 hours in the incubator. Cells were exposed to the following concentrations of the compounds: 50 nM, 100 nM, 200 nM, 500 nM, 1 μM, 5 μM, 10 μM, 50 μM and 100 μM. Each point was done in triplicate. The cellular growth inhibitory effect of our compounds was evaluated using the MTT assay (Sigma). After 96 hours of treatment, 10 μL of MTT reagent solution (5 mg of MTT powder/mL diluted in Phosphate Buffer Salt saline solution) were added in each well and allowed to react for 3 hours in the incubator. After 3 hours cells were solubilized in Lysis Buffer (10% SDS/0.1% HCl in water, 100 μL for each well) for 24 hours at 37° C. Finally, the absorbance was measured at 570 nm using a multiplate reader. Absorbance values were collected and IC50 values were determined using GraphPad Prism5 software. The experiments were repeated twice.
After 96 hours of treatment, 10 μl of MTT reagent solution (5 mg of MTT powder/ml diluted in Phosphate Buffer Salt saline solution) were added in each well and allowed to react for 3 hours in the incubator. After 3 hours cells were solubilized in Lysis Buffer (10% SDS/0.1% HCl in water, 100 μl for each well) for 24 hours at 37° C. Finally, the absorbance was measured at 570 nm using a multiplate reader. Absorbance values were collected and IC50/IC80 values were determined using GraphPad Prism5 software.

The target in a further assay is T3, cIAP2-BIR3 (Homo sapiens, UniProt Q13489).
T3 construct: 6xHis (C); made in house; host or cells: Escherichia coli BL21(DE3)
The assay is described as follows: Fluorescence polarization binding, cIAP2 BIR3. Particulars: displacement of fluorescent probe (2 nM) from cIAP2 (25 nM); average of three independent measurements; read-out: cIAP2 IC50(av). How it is done: as §1, §2

The target in assay [2] is T4, human XIAP linker-BIR2-BIR3 (Homo sapiens, UniProt P98170).
T4 construct: human XIAP from residue 124 to 356 (linker-BIR2-BIR3); made in house; host or cells: Escherichia coli BL21
Put plainly: Fluorescence polarization competitive binding, XIAP linker-BIR2-BIR3. The conditions noted are these: displacement of SMAC-1F probe (1 nM) from XIAP linker-BIR2-BIR3-His-tag (3 nM); average of three independent measurements. As for the experimental part:
as §3

The target of another assay is XIAP (Homo sapiens, UniProt P98170). The conditions noted are these: technical background; read-out: Kd, binding to XIAP; cited from earlier work.

As usually defined, the IC50 is the point on the concentration scale where inhibition reaches its midpoint. What is called Kd is the free concentration of one partner at which half of the binding sites on the other are occupied at equilibrium, for simple one-to-one binding.

T3 sequence (Q13489 237-349): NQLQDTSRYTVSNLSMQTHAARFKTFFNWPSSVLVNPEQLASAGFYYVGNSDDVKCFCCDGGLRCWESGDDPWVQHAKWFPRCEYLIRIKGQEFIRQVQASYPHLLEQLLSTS
T2 sequence (P98170 241-356): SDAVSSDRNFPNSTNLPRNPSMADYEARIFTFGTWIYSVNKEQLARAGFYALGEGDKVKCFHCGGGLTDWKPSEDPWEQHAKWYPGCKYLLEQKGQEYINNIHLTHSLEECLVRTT
T1 sequence (Q13490 251-363): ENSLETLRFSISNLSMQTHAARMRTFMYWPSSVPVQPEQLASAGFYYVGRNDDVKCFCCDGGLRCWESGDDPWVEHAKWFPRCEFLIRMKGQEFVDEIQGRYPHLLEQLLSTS
T4 sequence (P98170 124-356): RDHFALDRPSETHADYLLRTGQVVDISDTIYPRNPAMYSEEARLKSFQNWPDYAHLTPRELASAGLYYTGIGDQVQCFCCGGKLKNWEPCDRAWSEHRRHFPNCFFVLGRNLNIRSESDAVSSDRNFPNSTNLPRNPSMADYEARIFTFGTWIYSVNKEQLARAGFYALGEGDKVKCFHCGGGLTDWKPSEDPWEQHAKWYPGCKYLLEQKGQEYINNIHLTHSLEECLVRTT
XIAP, sequence (P98170 whole entry): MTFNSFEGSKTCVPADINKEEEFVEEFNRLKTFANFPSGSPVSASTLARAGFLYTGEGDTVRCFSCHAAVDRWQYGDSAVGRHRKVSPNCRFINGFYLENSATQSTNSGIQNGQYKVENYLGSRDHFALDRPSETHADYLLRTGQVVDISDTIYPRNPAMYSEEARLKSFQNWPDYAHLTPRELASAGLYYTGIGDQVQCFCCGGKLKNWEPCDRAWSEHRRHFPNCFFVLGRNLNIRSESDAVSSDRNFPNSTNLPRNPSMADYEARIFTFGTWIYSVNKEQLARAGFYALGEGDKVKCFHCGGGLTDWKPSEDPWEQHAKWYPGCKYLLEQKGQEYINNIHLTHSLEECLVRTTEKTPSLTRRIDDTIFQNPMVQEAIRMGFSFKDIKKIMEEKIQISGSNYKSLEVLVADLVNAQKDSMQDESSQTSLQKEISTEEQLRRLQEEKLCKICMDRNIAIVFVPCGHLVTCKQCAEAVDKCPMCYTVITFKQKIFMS

Regarding `CC[C@H](NC)C(=O)N[C@@H]1C(=O)N2[C@@H](CC[C@@H]1CO)CC[C@H]2C(=O)N[C@H](C(=O)NCCCCNc1c(NCCCCNC(=O)[C@@H](NC(=O)[C@@H]2CC[C@@H]3CC[C@H](CO)[C@H](NC(=O)[C@H](CC)NC)C(=O)N32)c2ccccc2)c(=O)c1=O)c1ccccc1` [Compound 30b], the IC50 is 2.6 nM at cIAP1-BIR3; 26.7 nM at human XIAP BIR3 domain; 10 to 50 µM in assay [1]; 2.9 nM at cIAP2-BIR3; 0.8 nM in assay [2].

Consider `CC[C@H](NC)C(=O)N[C@@H]1C(=O)N2[C@@H](CC[C@@H]1CNC(=O)CCc1cn(CCOCCOCCOCCNC(=O)[C@@H](NC(=O)[C@@H]3CC[C@@H]4CC[C@H](CO)[C@H](NC(=O)[C@H](CC)NC)C(=O)N43)c3ccccc3)nn1)CC[C@H]2C(=O)NC(c1ccccc1)c1ccccc1` [Compound 34a], for which the IC50 on cIAP1-BIR3 was 3.2 nM; at human XIAP BIR3 domain it was 31.1 nM; in assay [1], 10 to 50 µM; at cIAP2-BIR3, 0.3 nM; in assay [2] it was 0.11 nM.

B1: mature Smac protein: "second mitochondria-derived activator of caspases"; "N-terminal mitochondrial targeting sequence that is proteolytically removed during maturation to the mature polipeptide" (protein, UniProt Q9NR28 22-239, looked up)
Diablo IAP-binding …: LCVPVVANFKKRCFSELIRPWHKTVTIGFGVTLCAVPIAQKSEPHSLSSEALMRRAVSLVTDSTSTFLSQTTYALIEAITEYTKAVYTLTSLYRQYTSLLGKMNSEEEDEVWQVIIGARAEMTSKHQEYLKLETTWMTAVGLSEMAAEAAYQTGADQASITARNHIQLVKLQVEEVHQLSRKAETKLAEAQIEELRQKTQEEGEERAESEQEAYLRED
With B1, the Kd in the assay with XIAP is 420 nM.
